Consider one compound from ChEMBL document CHEMBL1201862, “PubChem BioAssay data set” (2004).

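Cells were grown in 96-well plates and exposed to each compound for 48 hours at five concentrations; endpoints were interpolated linearly between bracketing concentrations, or set to the highest concentration if not reached. GI50 is the concentration that inhibits growth by half.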 Active and inactive are the calls of the source. Cut-off read from the data, not from the text of the source: active = GI50 up to about 1.1 µM and inactive = higher.

Test systems include SF-268; PC-3; MDA-MB-435; UO-31; LXFL 529; NCI-H23; Malme-3M; OVCAR-5; SK-MEL-2; SW-620; Hs-578T; HOP-62; HCT-15; MOLT-4; U-251; COLO 205; OVCAR-3; RPMI-8226; HL-60; NCI-H226.
Common to all, as to assay: DTP human tumour cell line panel, 48 h

As to `COc1ccc(/C=C2\CCC(CN(C)C)C2=O)cc1OC` (stereo not given), the GI50 (commonly the concentration that inhibits growth by half) in the experiment on SF-268 was 10.7 µM (inactive); in the experiment with PC-3 it was 7.55 µM (inactive); in the experiment with MDA-MB-435, 5.55 µM (inactive); with UO-31 it was 11.5 µM (inactive); in the experiment with LXFL 529 it was 2.43 µM (inactive); in the experiment on NCI-H23, 7.82 µM (inactive). The GI50 was 3.95 µM (inactive) in the experiment on Malme-3M; 14.8 µM (inactive) with OVCAR-5; 11.5 µM (inactive) in the experiment on SK-MEL-2; 1.82 µM (inactive) in the experiment with SW-620; 4.3 µM (inactive) in the experiment on Hs-578T; 18.8 µM (inactive) with HOP-62. For the same compound, the GI50 in the experiment on HCT-15 was 2.9 µM; in the experiment with MOLT-4, 1.29 µM (inactive); in the experiment with U-251, 16.1 µM (inactive); in the experiment with COLO 205 it was 2.07 µM (inactive); in the experiment on OVCAR-3 it was 7.21 µM (inactive); in the experiment on RPMI-8226, 1.28 µM (inactive). Moreover, the GI50 in the experiment on HL-60 was 2.07 µM (inactive); in the experiment with NCI-H226 it was 13.2 µM (inactive).
